Results as given in patent US9040527B2, “Pyrimidinediamine kinase inhibitors” (Rigel Pharmaceuticals, Inc., priority 2008, dated 2015).
pIC50: −log10 of the molar value.

What was measured:
PLK1 [1] = biological target: T1, PLK1 (Homo sapiens, UniProt P53350); assay: In vitro PLK1 ELISA assay (biochemical); set-up: purchased Cell Signalling 7728; conditions: for IC50: ELISA, CHK2-derived peptide substrate, read-out: PLK1 IC50 (μM) biochemical assay
How it was run: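 Commercial PLK1 phosphorylates neutravidin-captured biotinylated CHK2 peptide for 45 min at room temperature in HEPES pH 7.2 with Mg2+/Mn2+/DTT, compounds at 10 μM to 0.005 μM. Phospho-CHK2(T68) antibody plus HRP secondary gives chemiluminescent read-out used for IC50.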

PLK1 [2] = biological target: T1, PLK1; assay: Cellular PLK1 assay in K562 cells overexpressing CDC25C; type: cell-based; set-up: endogenous in cells; host or cells: K562 (human chronic myelogenous leukemia) overexpressing CDC25C, nocodazole-arrested; conditions: nocodazole arrested, cdc25c p-Ser198 readout
How it was run: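 K562 cells overexpressing CDC25C were arrested with 333 nM nocodazole for 18 h at 37 °C, then exposed to compound at 8 points from 10 μM to 0.005 μM in duplicate for 120 min. After fixation and permeabilization, cells were stained for cdc25c pSer198 with a PE secondary and read by flow cytometry, 10,000 cells per well.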

[3] = read-out: IC50 in biochemical in vitro PLK1 ELISA assay (less than 10 μM)
[4] = read-out: IC50 in biochemical ELISA assay (less than 0.01 μM)

T1 sequence (P53350 whole entry): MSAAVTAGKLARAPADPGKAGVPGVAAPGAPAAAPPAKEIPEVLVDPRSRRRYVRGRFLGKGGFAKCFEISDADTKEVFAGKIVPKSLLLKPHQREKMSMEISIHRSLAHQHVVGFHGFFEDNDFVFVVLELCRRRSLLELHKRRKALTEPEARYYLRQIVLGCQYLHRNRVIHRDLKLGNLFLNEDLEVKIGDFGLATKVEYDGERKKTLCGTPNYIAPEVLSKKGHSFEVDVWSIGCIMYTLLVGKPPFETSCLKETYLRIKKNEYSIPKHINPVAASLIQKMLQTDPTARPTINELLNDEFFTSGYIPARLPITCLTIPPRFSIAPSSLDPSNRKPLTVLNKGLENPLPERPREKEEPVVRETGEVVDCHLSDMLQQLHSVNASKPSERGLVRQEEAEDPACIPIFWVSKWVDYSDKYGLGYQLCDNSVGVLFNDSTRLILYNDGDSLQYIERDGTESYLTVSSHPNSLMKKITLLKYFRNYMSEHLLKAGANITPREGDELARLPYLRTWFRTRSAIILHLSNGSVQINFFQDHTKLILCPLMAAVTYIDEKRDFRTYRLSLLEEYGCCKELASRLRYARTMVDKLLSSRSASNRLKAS

| IC50 (PLK1 [1]) | pIC50 (PLK1 [1]; [3]) | IC50 (PLK1 [2]) | pIC50 (PLK1 [1]; [4]) | Compound |
| --- | --- | --- | --- | --- |
| 0.5 to 5 µM | > 5.00 | ≥ 10 µM |  | Cc1cc(Nc2ncc(C)c(Nc3ccc4c(n3)N(CC3CCC3)C(=O)CO4)n2)ccc1N1CCN(C)CC1 [compound 115, 4-(cyclobutylmethyl)-6-(5-methyl-2-(3-methyl-4-(4-methylpiperazin-1-yl)phenylamino)pyrimidin-4-ylamino)-2H-pyrido[3,2-b][1,4]oxazin-3(4H)-one] |
| 0.5 to 5 µM | > 5.00 | ≥ 10 µM |  | Cc1cnc(Nc2cccc(N3CCN(C)CC3)c2)nc1Nc1ccc2c(n1)N(C1CCCC1)C(=O)CO2 [compound 116, 4-cyclopentyl-6-(5-methyl-2-(3-(4-methylpiperazin-1-yl)phenylamino)pyrimidin-4-ylamino)-2H-pyrido[3,2-b][1,4]oxazin-3(4H)-one] |
| ≥ 10 µM |  | ≥ 10 µM |  | Cc1cc(Nc2ncc(C)c(Nc3ccc4c(n3)N(C3CCCC3)C(=O)CO4)n2)ccc1N1CCN(C)CC1 [compound 117, 4-cyclopentyl-6-(5-methyl-2-(3-methyl-4-(4-methylpiperazin-1-yl)phenylamino)pyrimidin-4-ylamino)-2H-pyrido[3,2-b][1,4]oxazin-3(4H)-one] |
| ≥ 10 µM |  | 0.5 to 5 µM |  | Cc1cc(Nc2ncc(F)c(Nc3ccc4c(n3)N(Cc3ccccc3)C(=O)CO4)n2)ccc1N1CCN(C)CC1 [compound 118, 4-benzyl-6-(5-fluoro-2-(3-methyl-4-(4-methylpiperazin-1-yl)phenylamino)pyrimidin-4-ylamino)-2H-pyrido[3,2-b][1,4]oxazin-3(4H)-one] |
| ≥ 10 µM |  | ≥ 10 µM |  | Cc1cc(Nc2ncc(C)c(Nc3ccc4c(n3)N(CC3CCCCC3)C(=O)CO4)n2)ccc1N1CCN(C)CC1 [compound 119, 4-(cyclohexylmethyl)-6-(5-methyl-2-(3-methyl-4-(4-methylpiperazin-1-yl)phenylamino)pyrimidin-4-ylamino)-2H-pyrido[3,2-b][1,4]oxazin-3(4H)-one] |
| 0.5 to 5 µM | > 5.00 | 0.5 to 5 µM |  | CN1CCN(c2cccc(Nc3ncc(F)c(Nc4ccc5c(n4)N(Cc4ccccc4)C(=O)CO5)n3)c2)CC1 [compound 120, 4-benzyl-6-(5-fluoro-2-(3-(4-methylpiperazin-1-yl)phenylamino)pyrimidin-4-ylamino)-2H-pyrido[3,2-b][1,4]oxazin-3(4H)-one] |
| ≥ 10 µM |  | 0.5 to 5 µM |  | Cc1cc(Nc2ncc(C)c(Nc3ccc4c(n3)N(Cc3ccccc3)C(=O)CO4)n2)ccc1N1CCN(C)CC1 [compound 121, 4-benzyl-6-(5-methyl-2-(3-methyl-4-(4-methylpiperazin-1-yl)phenylamino)pyrimidin-4-ylamino)-2H-pyrido[3,2-b][1,4]oxazin-3(4H)-one] |
| < 0.5 µM | > 5.00 | 0.5 to 5 µM | > 8.00 | Cc1cnc(Nc2cccc(N3CCN(C)CC3)c2)nc1Nc1ccc2c(n1)N(Cc1ccccc1)C(=O)CO2 [compound 122, 4-benzyl-6-(5-methyl-2-(3-(4-methylpiperazin-1-yl)phenylamino)pyrimidin-4-ylamino)-2H-pyrido[3,2-b][1,4]oxazin-3(4H)-one] |
| ≥ 10 µM |  | ≥ 10 µM |  | COc1ccc(CN2C(=O)COc3ccc(Nc4nc(Nc5cccc(N6CCN(C)CC6)c5)ncc4F)nc32)cc1 [compound 123, 6-(5-fluoro-2-(3-(4-methylpiperazin-1-yl)phenylamino)pyrimidin-4-ylamino)-4-(4-methoxybenzyl)-2H-pyrido[3,2-b][1,4]oxazin-3(4H)-one] |
| ≥ 10 µM |  | ≥ 10 µM |  | COc1ccc(CN2C(=O)COc3ccc(Nc4nc(Nc5ccc(N6CCN(C)CC6)c(C)c5)ncc4F)nc32)cc1 [compound 124, 6-(5-fluoro-2-(3-methyl-4-(4-methylpiperazin-1-yl)phenylamino)pyrimidin-4-ylamino)-4-(4-methoxybenzyl)-2H-pyrido[3,2-b][1,4]oxazin-3(4H)-one] |
| 5 to 10 µM | > 5.00 | ≥ 10 µM |  | COc1ccc(CN2C(=O)COc3ccc(Nc4nc(Nc5cccc(N6CCN(C)CC6)c5)ncc4C)nc32)cc1 [compound 125, 4-(4-methoxybenzyl)-6-(5-methyl-2-(3-(4-methylpiperazin-1-yl)phenylamino)pyrimidin-4-ylamino)-2H-pyrido[3,2-b][1,4]oxazin-3(4H)-one] |
| ≥ 10 µM |  | 0.5 to 5 µM |  | COc1ccc(CN2C(=O)COc3ccc(Nc4nc(Nc5ccc(N6CCN(C)CC6)c(C)c5)ncc4C)nc32)cc1 [compound 126, 4-(4-methoxybenzyl)-6-(5-methyl-2-(3-methyl-4-(4-methylpiperazin-1-yl)phenylamino)pyrimidin-4-ylamino)-2H-pyrido[3,2-b][1,4]oxazin-3(4H)-one] |
| < 0.5 µM | > 5.00 | < 0.5 µM | > 8.00 | C#CCN1C(=O)COc2ccc(Nc3nc(Nc4cccc(N5CCN(C)CC5)c4)ncc3C)nc21 [compound 127, 6-(5-methyl-2-(3-(4-methylpiperazin-1-yl)phenylamino)pyrimidin-4-ylamino)-4-(prop-2-ynyl)-2H-pyrido[3,2-b][1,4]oxazin-3(4H)-one] |
| < 0.5 µM | > 5.00 | 0.5 to 5 µM | > 8.00 | C#CCN1C(=O)COc2ccc(Nc3nc(Nc4cccc(N5CCN(C)CC5)c4)ncc3F)nc21 [compound 128, 6-(5-fluoro-2-(3-(4-methylpiperazin-1-yl)phenylamino)pyrimidin-4-ylamino)-4-(prop-2-ynyl)-2H-pyrido[3,2-b][1,4]oxazin-3(4H)-one] |
| < 0.5 µM | > 5.00 | 0.5 to 5 µM | > 8.00 | Cc1cnc(Nc2cccc(N3CCN(C)CC3)c2)nc1Nc1ccc2c(n1)N(CC1CC1)C(=O)CO2 [compound 129, 4-(cyclopropylmethyl)-6-(5-methyl-2-(3-(4-methylpiperazin-1-yl)phenylamino)pyrimidin-4-ylamino)-2H-pyrido[3,2-b][1,4]oxazin-3(4H)-one] |
| < 0.5 µM | > 5.00 | 0.5 to 5 µM | > 8.00 | Cc1cnc(Nc2cccc(N3CCN(C)CC3)c2)nc1Nc1ccc2c(n1)N(CC1CCC1)C(=O)CO2 [compound 130, 4-(cyclobutylmethyl)-6-(5-methyl-2-(3-(4-methylpiperazin-1-yl)phenylamino)pyrimidin-4-ylamino)-2H-pyrido[3,2-b][1,4]oxazin-3(4H)-one] |
| 0.5 to 5 µM | > 5.00 | ≥ 10 µM |  | CN1CCN(c2cccc(Nc3ncc(F)c(Nc4ccc5c(n4)N(C4CCCC4)C(=O)CO5)n3)c2)CC1 [compound 131, 4-cyclopentyl-6-(5-fluoro-2-(3-(4-methylpiperazin-1-yl)phenylamino)pyrimidin-4-ylamino)-2H-pyrido[3,2-b][1,4]oxazin-3(4H)-one] |
| 5 to 10 µM | > 5.00 | 0.5 to 5 µM |  | CN1CCN(c2cccc(Nc3ncc(F)c(Nc4ccc5c(n4)N(Cc4ccc(F)cc4)C(=O)CO5)n3)c2)CC1 [compound 132, 6-(5-fluoro-2-(3-(4-methylpiperazin-1-yl)phenylamino)pyrimidin-4-ylamino)-4-(4-fluorobenzyl)-2H-pyrido[3,2-b][1,4]oxazin-3(4H)-one] |
| < 0.5 µM | > 5.00 | 0.5 to 5 µM |  | Cc1cnc(Nc2cccc(N3CCN(C)CC3)c2)nc1Nc1ccc2c(n1)N(Cc1ccc(F)cc1)C(=O)CO2 [compound 133, 4-(4-fluorobenzyl)-6-(5-methyl-2-(3-(4-methylpiperazin-1-yl)phenylamino)pyrimidin-4-ylamino)-2H-pyrido[3,2-b][1,4]oxazin-3(4H)-one] |
| < 0.5 µM | > 5.00 | < 0.5 µM | > 8.00 | CCC(CC)N1C(=O)COc2ccc(Nc3nc(Nc4cccc(N5CCN(C)CC5)c4)ncc3F)nc21 [compound 134, 6-(5-fluoro-2-(3-(4-methylpiperazin-1-yl)phenylamino)pyrimidin-4-ylamino)-4-(pentan-3-yl)-2H-pyrido[3,2-b][1,4]oxazin-3(4H)-one] |
| ≥ 10 µM |  | ≥ 10 µM |  | CCCN1C(=O)COc2ccc(Nc3nc(Nc4ccc(N5CCN(C)CC5)c(C(F)(F)F)c4)ncc3F)nc21 [compound 135, 6-(5-fluoro-2-(4-(4-methylpiperazin-1-yl)-3-(trifluoromethyl)phenyl-amino)pyrimidin-4-ylamino)-4-propyl-2H-pyrido[3,2-b][1,4]oxazin-3(4H)-one] |
| ≥ 10 µM |  | ≥ 10 µM |  | CCCN1C(=O)COc2ccc(Nc3nc(Nc4ccc(N5CCN(C)CC5)c(C(F)(F)F)c4)ncc3C)nc21 [compound 136, 6-(5-methyl-2-(4-(4-methylpiperazin-1-yl)-3-(trifluoromethyl)phenyl-amino)pyrimidin-4-ylamino)-4-propyl-2H-pyrido[3,2-b][1,4]oxazin-3(4H)-one] |
| ≥ 10 µM |  | ≥ 10 µM |  | CCCN1C(=O)COc2ccc(Nc3nc(Nc4ccc(N5CCN(S(C)(=O)=O)CC5)c(C(F)(F)F)c4)ncc3F)nc21 [compound 137, 6-(5-fluoro-2-(4-(4-(methylsulfonyl)piperazin-1-yl)-3-(trifluoro-methyl)phenyl-amino)pyrimidin-4-ylamino)-4-propyl-2H-pyrido[3,2-b][1,4]oxazin-3(4H)-one] |
